The source of these data is PMC11434342, “Novel Autotaxin Inhibitor ATX-1d Significantly Enhances Potency of Paclitaxel—An In Silico and In Vitro Study” (Molecules, 2024).

The first assay addresses T1, autotaxin (ATX) (Homo sapiens, UniProt Q13822).
T1 construct: gene ENPP2; human recombinant ATX (hATX)
Put plainly: FS-3 fluorogenic substrate hydrolysis, dose-response with purified recombinant ATX ([…]). In kind it is biochemical.
Settings: not given
As usually defined, the IC50 is the concentration that inhibits the measured activity by half. On to `CCCCCCCCCCCCCCCc1ccc(CP(=O)(O)O)cc1` [BMP-22, reference compound], for which the IC50 was 200 ± 100 nM.

Another assay addresses T1, autotaxin (ATX). The assay is described as follows: biochemical. Also noted: Inhibition of hydrolysis of fluorogenic lysophospholipid substrate FS-3 by recombinant human autotaxin, fluorescence read-out. As to conditions: read-out: % inhibition in ATX assay at 10 µM. Here is the method:
Human recombinant ATX (hATX) was purified as previously described. The enzymatic activity of ATX was assessed by measuring the hydrolysis of the synthetic lipid-like FRET-based substrate FS-3 from Echelon Biosciences. Compounds predicted to have potential inhibitory effects through molecular docking were initially screened at a concentration of 10 μM. The reaction mixtures were prepared in 60 μL volumes and loaded into triplicate wells of black-wall 96-well plates. The assay buffer consisted of 50 mM Tris, 140 mM NaCl, 5 mM KCl, 1 mM CaCl2, 1 mM MgCl2, and 10 μM BSA, with the pH adjusted to 8.0. Each assay contained 4 nM ATX and 1 μM FS-3. The test compounds were diluted in an assay buffer and tested in technical triplicates. […] Fluorescence readings were taken at 2 min intervals over 1 h using excitation and emission wavelengths of 485 and 538 nm. Fluorescence data were collected as relative fluorescence units (RFUs) and averaged for the triplicate samples. A compound was considered an experimentally validated hit if it caused more than 50% inhibition of FS-3 hydrolysis at 10 µM concentration. For dose–response studies, nonlinear regression analysis was performed using GraphPad Prism (GraphPad Software, version 10.0.2 (232), San Diego, CA, USA). A variable four-parameter slope model was applied to fit the data, allowing for determining the Hill slope and interpolation of the IC50 ± SD. Fluorescence measurements were conducted using the CLARIOstar Plus plate reader from BMG Labtech (BMG Labtech, Ortenberg, Baden-Württemberg, Germany). Inhibition assays targeting the ATX-mediated hydrolysis of FS-3 were performed with 45 selected compounds, each at a fixed concentration of 10 μM. Compounds were classified as experimentally validated hits if they achieved more than 50% inhibition of the hydrolysis of the model lysophospholipase D substrate FS-3. From this initial screening, only one compound, ATX-1d, met this criterion (Supplementary Information, Table S1). ATX-1d was then subjected to a dose–response assay to determine its IC50 value (Figure 4). […] BMP-22, a previously validated inhibitor of ATX, was used as a control. The second replicate is shown in the Supplementary Information, Figure S2.
As usually defined, the inhibition is the relative decrease from the control value, in per cent. With `COC(=O)/C(=C1\C(=O)N(C)C(=O)C1(c1ccccn1)C1CC(=O)N(C)C1=O)c1ccc(C(C)(C)C)cc1` (centres unmarked) [ATX-1a], the inhibition at 10 µM worked out at 42.5%.

On to `CCN1C(=O)CC(C2(c3ccccn3)C(=O)N(CC)C(=O)/C2=C(\C(=O)OC)c2ccccc2)C1=O` (centres unmarked) [ATX-1b], for which the inhibition at 10 µM worked out at 3.59%.

As to `CCOC(=O)/C(=C1\C(=O)N(C)C(=O)C1(c1ccccn1)C1CC(=O)N(C)C1=O)c1ccc(C)cc1` (centres unmarked) [ATX-1f], the inhibition at 10 µM was -0.36%.

For the molecule `CCN1C(=O)CC(C2(c3ccccn3)C(=O)N(CC)C(=O)/C2=C(\C(=O)OC)c2cccc(OC)c2)C1=O` (centres unmarked) [ATX-1h], the inhibition at 10 µM came out at 7.6%. Same read-out and setting: to `CCN1C(=O)CC(C2(c3ccccn3)C(=O)N(CC)C(=O)/C2=C(\C(=O)OC)c2ccc(F)cc2)C1=O` (centres unmarked) [ATX-1i] belongs 10%. The same measure, in the same setting: to `CCC1=N[C@](C(=O)OC)(c2ccc(Br)cc2)[C@@H]2C(=O)N(C)C(=O)C12` (some centres unmarked) [ATX-2a] belongs 19%. `CCC1=N[C@](C(=O)OC)(c2ccc(Br)cc2)[C@@H]2C(=O)N(Cc3ccccc3)C(=O)C12` (some centres unmarked) [ATX-2b]: the inhibition at 10 µM worked out at 24.9%.

`CCC1=N[C@](C(=O)OC)(c2cccc(OC)c2)[C@@H]2C(=O)N(C)C(=O)C12` (some centres unmarked) [ATX-2c]: the inhibition at 10 µM came to 13%. On the same count and under the same terms, as for `CCN1C(=O)C2C(C)=N[C@](C(=O)OC)(c3cccc(OC)c3)[C@@H]2C1=O` (some centres unmarked) [ATX-2d], the figure is 4.61%; as for `CCC1=N[C@](C(=O)OC)(c2ccc(Br)cc2)[C@@H]2C(=O)N(CC)C(=O)C12` (some centres unmarked) [ATX-2e], 10.1%; as for `CCC1=N[C@](C(=O)OC)(c2ccccc2)[C@@H]2C(=O)N(Cc3ccccc3)C(=O)C12` (some centres unmarked) [ATX-2g], 3.38%. On the same count and under the same terms, as for `COC(=O)C1(c2ccc(Cl)cc2)OC(c2ccc(F)cc2F)C2C(=O)N(c3ccccc3)C(=O)C21` (centres unmarked) [ATX-3c], the figure is -35.9%; as for `COC(=O)C1(c2ccc(Cl)cc2)OC(c2cccc(OC)c2)C2C(=O)N(c3ccccc3)C(=O)C21` (centres unmarked) [ATX-3f], 5.8%; as for `COC(=O)C1(c2ccccc2)OC(c2cccc(OC)c2)C2C(=O)N(c3ccccc3)C(=O)C21` (centres unmarked) [ATX-3g], -30.1%.

For `CCN1C(=O)C2C(c3cccc(F)c3)OC(C(=O)OC)(c3ccc(C(C)(C)C)cc3)C2C1=O` (centres unmarked) [ATX-3h], the inhibition at 10 µM was -5.76%.

As for `COC(=O)C1(c2ccccc2)OC(c2cccc(F)c2)C2C(=O)N(c3ccccc3)C(=O)C21` (centres unmarked) [ATX-3i], the inhibition at 10 µM is -37.4%. Same read-out and setting: to `COC(=O)C1(c2cccc(OC)c2)OC(c2cccc(Cl)c2)C2C(=O)N(Cc3ccccc3)C(=O)C21` (centres unmarked) [ATX-3j] belongs 16.2%; to `COC(=O)C(OCCCCOC1=CC(=O)CC(C)(C)C1)c1ccc(Br)cc1` (centres unmarked) [ATX-4a], 18.7%; to `COC(=O)C(OCCCCOC1=CC(=O)CC(C)(C)C1)c1cccc(OC)c1` (centres unmarked) [ATX-4b], 12.6%. On the same count and under the same terms, to `COC(=O)C(OCCCCOC1=CC(=O)CC(C)(C)C1)c1ccc(C(C)(C)C)cc1` (centres unmarked) [ATX-4c] belongs -19.6%; to `Cc1ccccc1C(OCCCCOC1=CC(=O)CC(C)(C)C1)C(=O)OCc1ccccc1` (centres unmarked) [ATX-4e], 33.6%; to `COC(=O)C(OCCCCOC1=CC(=O)CC(C)(C)C1)c1cccc(Cl)c1` (centres unmarked) [ATX-4f], 40.7%. Still for that read-out and setting: to `COC(=O)C(OCCCCOC1=CC(=O)CC(C)(C)C1)c1ccccc1` (centres unmarked) [ATX-4g] belongs 32.6%; to `COC(=O)C(OCCCCOC1=CC(=O)CC(C)(C)C1)c1cccc(C(F)(F)F)c1` (centres unmarked) [ATX-4i], 15.2%; to `COC(=O)C(OCCCCOC1=CC(=O)CC(C)(C)C1)c1cccc(F)c1` (centres unmarked) [ATX-4j], 41.4%. Consider `CCOC(=O)C1C(C(=O)OCC)C12C(=O)N(C(C)=O)c1ccccc12` (centres unmarked) [ATX-5c], for which the inhibition at 10 µM was -4.52%.

With `CCOC(=O)C1C(C(=O)OCC)C12C(=O)N(C(=O)OC(C)(C)C)c1ccc(Br)cc12` (centres unmarked) [ATX-5g], the inhibition at 10 µM is -0.48%. In the case of `CCOC(=O)C1C(C(=O)OCC)C12C(=O)N(C(C)=O)c1ccc(C)cc12` (centres unmarked) [ATX-5j], the inhibition at 10 µM was -10.2%.
